How the values were obtained:
[1] = target: T1, Progesterone receptor (Homo sapiens, UniProt P06401)
T1 sequence (P06401 whole entry): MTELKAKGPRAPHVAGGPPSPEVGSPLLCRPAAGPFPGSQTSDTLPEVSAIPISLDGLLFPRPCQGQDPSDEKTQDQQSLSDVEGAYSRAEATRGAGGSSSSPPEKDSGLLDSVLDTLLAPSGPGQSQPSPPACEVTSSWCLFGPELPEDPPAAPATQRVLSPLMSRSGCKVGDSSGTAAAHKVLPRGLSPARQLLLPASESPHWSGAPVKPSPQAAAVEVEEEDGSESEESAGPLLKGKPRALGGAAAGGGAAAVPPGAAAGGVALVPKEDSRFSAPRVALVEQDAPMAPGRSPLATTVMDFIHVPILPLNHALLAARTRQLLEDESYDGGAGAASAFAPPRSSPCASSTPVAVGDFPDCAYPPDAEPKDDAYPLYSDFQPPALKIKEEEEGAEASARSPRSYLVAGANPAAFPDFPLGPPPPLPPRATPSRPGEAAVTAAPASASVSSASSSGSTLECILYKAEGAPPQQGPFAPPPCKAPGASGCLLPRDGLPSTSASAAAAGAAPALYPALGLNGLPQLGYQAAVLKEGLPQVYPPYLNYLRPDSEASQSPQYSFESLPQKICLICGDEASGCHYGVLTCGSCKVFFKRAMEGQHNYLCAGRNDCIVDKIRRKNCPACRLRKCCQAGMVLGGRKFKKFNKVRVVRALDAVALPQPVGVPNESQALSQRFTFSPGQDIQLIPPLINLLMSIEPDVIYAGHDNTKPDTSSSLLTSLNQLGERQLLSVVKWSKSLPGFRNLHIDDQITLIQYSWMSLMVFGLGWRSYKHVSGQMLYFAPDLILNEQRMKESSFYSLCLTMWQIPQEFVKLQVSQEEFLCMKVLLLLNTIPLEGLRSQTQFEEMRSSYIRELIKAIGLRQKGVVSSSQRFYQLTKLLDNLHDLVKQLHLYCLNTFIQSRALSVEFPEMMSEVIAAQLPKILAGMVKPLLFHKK

[2] = target: 3',5'-cyclic-AMP phosphodiesterase 4A (Homo sapiens, UniProt P27815); format: functional
Chain of 3',5'-cyclic-AMP phosphodiesterase 4A (P27815 whole entry): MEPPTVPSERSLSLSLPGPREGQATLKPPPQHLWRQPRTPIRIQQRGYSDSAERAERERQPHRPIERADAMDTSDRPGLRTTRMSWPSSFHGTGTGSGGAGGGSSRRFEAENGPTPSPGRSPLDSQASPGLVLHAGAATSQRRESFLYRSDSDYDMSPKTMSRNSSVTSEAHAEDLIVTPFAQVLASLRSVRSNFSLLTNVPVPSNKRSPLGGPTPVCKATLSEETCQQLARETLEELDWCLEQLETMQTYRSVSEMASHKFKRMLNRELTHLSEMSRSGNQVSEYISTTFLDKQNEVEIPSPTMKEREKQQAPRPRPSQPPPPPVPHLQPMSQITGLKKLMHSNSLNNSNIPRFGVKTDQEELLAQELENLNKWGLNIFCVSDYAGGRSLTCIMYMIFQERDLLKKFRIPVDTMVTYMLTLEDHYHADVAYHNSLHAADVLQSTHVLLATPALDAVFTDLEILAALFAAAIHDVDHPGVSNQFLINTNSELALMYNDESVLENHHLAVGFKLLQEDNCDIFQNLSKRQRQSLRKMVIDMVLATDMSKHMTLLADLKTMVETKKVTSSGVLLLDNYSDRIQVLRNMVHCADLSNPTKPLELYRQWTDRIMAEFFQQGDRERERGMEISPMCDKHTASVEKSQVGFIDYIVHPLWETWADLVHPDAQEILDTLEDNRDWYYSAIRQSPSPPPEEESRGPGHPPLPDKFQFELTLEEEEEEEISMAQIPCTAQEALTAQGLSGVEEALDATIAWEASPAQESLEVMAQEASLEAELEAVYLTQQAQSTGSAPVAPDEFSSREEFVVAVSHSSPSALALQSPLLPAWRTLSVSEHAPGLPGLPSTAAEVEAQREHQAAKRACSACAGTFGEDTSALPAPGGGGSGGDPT

[3] = target: T2, Adenosine receptor A3 (Homo sapiens, UniProt P0DMS8)
T2 sequence (P0DMS8 whole entry): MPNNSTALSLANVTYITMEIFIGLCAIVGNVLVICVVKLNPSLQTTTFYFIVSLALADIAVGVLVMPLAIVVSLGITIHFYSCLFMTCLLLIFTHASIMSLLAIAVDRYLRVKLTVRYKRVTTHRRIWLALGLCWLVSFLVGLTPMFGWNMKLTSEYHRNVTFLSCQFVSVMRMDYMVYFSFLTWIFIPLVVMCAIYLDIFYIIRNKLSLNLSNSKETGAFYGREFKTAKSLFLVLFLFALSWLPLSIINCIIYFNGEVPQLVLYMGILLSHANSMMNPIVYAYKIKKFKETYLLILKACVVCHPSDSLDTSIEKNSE

[4] = target: T3, Alpha-2A adrenergic receptor (Homo sapiens, UniProt P08913)
T3 sequence (P08913 whole entry): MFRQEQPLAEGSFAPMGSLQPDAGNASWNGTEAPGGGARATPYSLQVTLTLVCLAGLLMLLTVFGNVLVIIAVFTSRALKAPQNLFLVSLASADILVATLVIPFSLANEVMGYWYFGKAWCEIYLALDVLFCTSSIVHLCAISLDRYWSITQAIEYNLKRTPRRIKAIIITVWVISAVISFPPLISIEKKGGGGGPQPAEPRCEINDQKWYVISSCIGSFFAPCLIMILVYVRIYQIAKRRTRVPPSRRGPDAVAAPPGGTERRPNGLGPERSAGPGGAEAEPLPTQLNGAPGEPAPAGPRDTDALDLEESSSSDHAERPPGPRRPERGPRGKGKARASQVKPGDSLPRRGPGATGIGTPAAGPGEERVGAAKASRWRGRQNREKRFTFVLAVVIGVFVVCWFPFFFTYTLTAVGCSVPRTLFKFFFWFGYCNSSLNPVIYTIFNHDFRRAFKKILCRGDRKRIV

[5] = target: T4, Alpha-1A adrenergic receptor (Homo sapiens, UniProt P35348); format: functional, cell-based
T4 sequence (P35348 whole entry): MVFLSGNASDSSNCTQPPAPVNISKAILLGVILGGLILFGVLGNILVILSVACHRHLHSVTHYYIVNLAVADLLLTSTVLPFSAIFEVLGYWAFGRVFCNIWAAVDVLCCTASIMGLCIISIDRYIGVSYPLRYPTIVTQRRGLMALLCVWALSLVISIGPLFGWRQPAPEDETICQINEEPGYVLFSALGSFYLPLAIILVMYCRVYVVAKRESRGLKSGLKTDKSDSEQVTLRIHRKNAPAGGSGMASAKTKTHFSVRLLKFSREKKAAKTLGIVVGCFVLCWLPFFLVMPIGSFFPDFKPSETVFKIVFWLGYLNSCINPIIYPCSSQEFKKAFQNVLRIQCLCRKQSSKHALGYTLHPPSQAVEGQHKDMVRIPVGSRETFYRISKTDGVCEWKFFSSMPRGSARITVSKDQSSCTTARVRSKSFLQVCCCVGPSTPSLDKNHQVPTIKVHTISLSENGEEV

[6] = target: Melanocortin receptor 3 (Homo sapiens, UniProt P41968)
Chain of Melanocortin receptor 3 (P41968 whole entry): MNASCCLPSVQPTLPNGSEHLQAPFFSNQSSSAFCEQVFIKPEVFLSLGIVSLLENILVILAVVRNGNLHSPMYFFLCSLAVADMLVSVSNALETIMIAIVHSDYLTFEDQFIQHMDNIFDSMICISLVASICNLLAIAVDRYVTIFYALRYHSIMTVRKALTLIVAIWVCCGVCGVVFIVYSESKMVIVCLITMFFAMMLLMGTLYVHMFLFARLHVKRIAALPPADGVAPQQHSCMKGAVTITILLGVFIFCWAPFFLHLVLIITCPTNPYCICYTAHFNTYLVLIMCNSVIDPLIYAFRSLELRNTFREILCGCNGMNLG

[7] = target: Neuronal acetylcholine receptor subunit alpha-4 (Homo sapiens, UniProt P43681)
Chain of Neuronal acetylcholine receptor subunit alpha-4 (P43681 whole entry): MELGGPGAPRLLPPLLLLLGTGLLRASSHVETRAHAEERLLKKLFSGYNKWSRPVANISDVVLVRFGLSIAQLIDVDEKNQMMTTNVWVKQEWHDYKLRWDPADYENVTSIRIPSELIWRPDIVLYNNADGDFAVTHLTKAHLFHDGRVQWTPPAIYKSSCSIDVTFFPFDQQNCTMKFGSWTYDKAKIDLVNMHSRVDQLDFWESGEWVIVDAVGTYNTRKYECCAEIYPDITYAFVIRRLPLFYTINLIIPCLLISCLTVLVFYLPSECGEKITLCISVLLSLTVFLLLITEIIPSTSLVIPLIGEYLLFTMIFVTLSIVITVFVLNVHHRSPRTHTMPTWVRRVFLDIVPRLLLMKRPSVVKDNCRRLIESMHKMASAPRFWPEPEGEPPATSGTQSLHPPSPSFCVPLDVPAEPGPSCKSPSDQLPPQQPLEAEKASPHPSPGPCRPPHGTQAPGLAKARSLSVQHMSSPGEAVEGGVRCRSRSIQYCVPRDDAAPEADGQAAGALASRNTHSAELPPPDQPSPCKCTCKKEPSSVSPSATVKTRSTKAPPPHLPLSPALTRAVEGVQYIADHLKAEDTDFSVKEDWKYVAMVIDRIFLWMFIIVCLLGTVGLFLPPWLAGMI

[8] = target: Adenosine receptor A2a (Homo sapiens, UniProt P29274)
Chain of Adenosine receptor A2a (P29274 whole entry): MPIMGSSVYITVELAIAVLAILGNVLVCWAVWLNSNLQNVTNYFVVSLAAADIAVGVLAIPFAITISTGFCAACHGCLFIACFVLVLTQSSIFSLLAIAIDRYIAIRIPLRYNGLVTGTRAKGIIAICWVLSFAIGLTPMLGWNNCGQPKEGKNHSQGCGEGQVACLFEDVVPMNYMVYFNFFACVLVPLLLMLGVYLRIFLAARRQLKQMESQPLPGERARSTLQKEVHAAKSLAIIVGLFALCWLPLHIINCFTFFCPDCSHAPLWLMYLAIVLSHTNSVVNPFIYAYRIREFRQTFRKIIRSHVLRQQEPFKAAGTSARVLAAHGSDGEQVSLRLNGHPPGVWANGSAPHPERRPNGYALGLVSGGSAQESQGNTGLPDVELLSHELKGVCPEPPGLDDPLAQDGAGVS

[9] = target: Motilin receptor (Homo sapiens, UniProt O43193)
Chain of Motilin receptor (O43193 whole entry): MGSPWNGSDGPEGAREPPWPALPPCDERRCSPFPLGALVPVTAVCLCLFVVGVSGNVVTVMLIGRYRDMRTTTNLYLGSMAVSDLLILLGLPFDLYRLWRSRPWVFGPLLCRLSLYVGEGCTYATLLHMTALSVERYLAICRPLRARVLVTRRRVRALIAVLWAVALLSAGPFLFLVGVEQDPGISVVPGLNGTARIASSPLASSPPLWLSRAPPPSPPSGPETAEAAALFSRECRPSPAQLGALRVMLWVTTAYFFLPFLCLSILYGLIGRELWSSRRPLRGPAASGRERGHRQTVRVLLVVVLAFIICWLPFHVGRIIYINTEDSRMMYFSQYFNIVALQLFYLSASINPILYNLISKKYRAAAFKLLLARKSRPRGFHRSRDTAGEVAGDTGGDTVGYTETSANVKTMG

[10] = target: T5, Neuropeptide Y receptor type 1 (Homo sapiens, UniProt P25929); conditions: read-out: AC50
T5 sequence (P25929 whole entry): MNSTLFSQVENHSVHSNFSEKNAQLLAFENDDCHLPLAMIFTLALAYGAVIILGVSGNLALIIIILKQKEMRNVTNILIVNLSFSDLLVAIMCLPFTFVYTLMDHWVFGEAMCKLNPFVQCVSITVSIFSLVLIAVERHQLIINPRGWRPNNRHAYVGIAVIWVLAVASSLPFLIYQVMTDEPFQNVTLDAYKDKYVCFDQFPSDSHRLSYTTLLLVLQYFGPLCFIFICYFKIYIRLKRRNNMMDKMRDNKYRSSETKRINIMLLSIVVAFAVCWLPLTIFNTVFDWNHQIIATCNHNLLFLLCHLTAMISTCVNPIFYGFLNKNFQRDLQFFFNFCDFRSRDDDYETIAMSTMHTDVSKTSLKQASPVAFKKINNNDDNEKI
Also: assay procedure not described here.

SMILES	AC50 [1] [µM]	AC50 [2] [µM]	AC50 [3] [µM]	AC50 [4] [µM]	AC50 [5] [µM]	AC50 [6] [µM]	AC50 [7] [µM]	AC50 [8] [µM]	AC50 [9] [µM]	AC50 [10] [µM]
CC[C@H](c1ccc(O)cc1)[C@@H](CC)c1ccc(O)cc1 [HEXESTROL]	1.85	> 30	8.47	> 30	> 3					
O=C(O)COc1ccc(C(=O)c2cccs2)c(Cl)c1Cl	> 30	> 30	> 30	> 30	> 30					
N#Cc1ccc2c(c1)N(CCCN1CCC(O)CC1)c1ccccc1S2 [PERICIAZINE]	22.1	> 30	> 30							
CC1=C(/C=C/C(C)=C/C=C/C(C)=C/C(=O)O)C(C)(C)CCC1 [TRETINOIN]	4.24	1.27	8.21	> 30	20.3					
OC[C@H]1O[C@@H](c2ccc(Cl)c(Cc3ccc(O[C@H]4CCOC4)cc3)c2)[C@H](O)[C@@H](O)[C@@H]1O [EMPAGLIFLOZIN]	> 30	> 30	> 30	> 30	> 30					
C/C=C/C/C=C/CCC(=O)[C@H]1O[C@H]1C(N)=O [CERULENIN]	> 30	> 30	> 30	> 30	> 30					
CCn1cc(C(=O)O)c(=O)c2cc3c(cc21)OCO3 [OXOLINIC ACID]	> 30	> 30	> 30	> 30	> 30					
CCOC(=O)C1=C[C@@H](OC(CC)CC)[C@H](NC(C)=O)[C@@H](N)C1 [OSELTAMIVIR]	> 30	> 30	> 30	> 30	> 30					
Cc1onc(-c2ccccc2)c1C(=O)N[C@@H]1C(=O)N2[C@@H]1SC(C)(C)[C@@H]2C(=O)O [OXACILLIN]	> 30	> 30	> 30	> 30	> 30					
CC(CN1CC(=O)NC(=O)C1)N1CC(=O)NC(=O)C1 (stereo not given) [RAZOXANE]	> 30	> 30	> 30	> 30	> 30					
CCCN(CCC)C(=O)Cc1c(-c2ccc(Cl)cc2)nc2ccc(Cl)cn12 [ALPIDEM]	> 30	> 30		> 30	> 10	> 30	> 30	> 30	> 30	> 30
CCCC(CCC)C(=O)O [VALPROIC ACID]	> 30	> 30		> 30		> 30	> 10	> 30	> 10	> 30

Source: ChEMBL document CHEMBL5291721, “A preclinical secondary pharmacology resource illuminates target-adverse drug reaction associations of marketed drugs” (Nat Commun, 2023)
